Laboratory results from patent publication US20240409585A1, “MACROCYCLIC IMMUNOMODULATORS” (priority 2021, published 2024).
Bridge positions count the residues as written; N and C are the ends. Square brackets hold non-standard residues; d marks the D form. Peptide text beside a SMILES is read from it. * marks the point of attachment. ξ: configuration not given here. Gly(1-amidinopiperidin-4-yl) = N=C(N)N1CCC([C@H](N)C(=O)O)CC1; Ala(indol-4-yl) = N[C@@H](Cc1cccc2[nH]ccc12)C(=O)O; Phe(4-COOH) = N[C@@H](Cc1ccc(C(=O)O)cc1)C(=O)O; Phe(4-CH2NH2) = NCc1ccc(C[C@H](N)C(=O)O)cc1; Bip = N[C@@H](Cc1ccc(-c2ccccc2)cc1)C(=O)O; Lys(Me3) = C[N+](C)(C)CCCC[C@H](N)C(=O)O; Phe(3-Me) = Cc1cccc(C[C@H](N)C(=O)O)c1; Lys(Me2) = CN(C)CCCC[C@H](N)C(=O)O; 4Pal = N[C@@H](Cc1ccncc1)C(=O)O; Cha = N[C@@H](CC1CCCCC1)C(=O)O; Ile(3ξ) = CCC(C)[C@H](N)C(=O)O; Thr(3ξ) = CC(O)[C@H](N)C(=O)O; Dap(Me) = CNC[C@H](N)C(=O)O; Carboxymethyl = O=C(O)C*; NMeA = CN[C@@H](C)C(=O)O; Dab = NCC[C@H](N)C(=O)O; ξC = NC(CS)C(=O)O

target: T1, PE-labeled human PD-L1-Ig binding to Jurkat cell line over-expressing human PD-1 (Jurkat-PD-1) (Homo sapiens, UniProt Q15116); assay: Jurkat-PD-1 Cell Binding High-Content Screening Assay (CBA): Method 1; details: Jurkat-hPD-1 cells, PE-labeled PD-L1-Ig 20 nM final; read-out: Jurkat HPDL1 PD1 IC50 (uM) (Method 1)
T1 construct: expressed in transfected cells; host or cells: Jurkat
T1 sequence (Q15116 25-288): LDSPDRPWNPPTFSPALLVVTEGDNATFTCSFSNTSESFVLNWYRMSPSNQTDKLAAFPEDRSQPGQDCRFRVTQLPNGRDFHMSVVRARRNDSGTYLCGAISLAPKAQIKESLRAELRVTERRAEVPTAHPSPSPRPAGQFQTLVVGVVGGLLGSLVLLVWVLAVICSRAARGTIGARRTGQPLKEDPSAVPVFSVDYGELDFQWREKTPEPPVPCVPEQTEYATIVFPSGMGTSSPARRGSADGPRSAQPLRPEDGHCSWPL

Compound | IC50 [µM]
CCC(C)[C@@H]1NC(=O)[C@H](Cc2ccc(-c3ccccc3)cc2)NC(=O)[C@H](C(C)C)NC(=O)[C@H](Cc2c[nH]c3ccccc23)NC(=O)[C@H](CC(=O)O)NC(=O)[C@H](Cc2ccc(O)cc2)NC(=O)[C@H](Cc2cccc3[nH]ccc23)NC(=O)CSC[C@@H](C(=O)N[C@@H](C)C(N)=O)NC(=O)[C@H](C(C)O)NC(=O)[C@H](C(C)C)NC(=O)[C@H](CC2CCCCC2)NC(=O)[C@H](CCN)NC(=O)[C@@H](CC(C)C)NC(=O)[C@H](C)N(C)C1=O (stereo partly drawn) [Compound 2053] ({CH2CO}-[Ala(indol-4-yl)]YDWV[Bip][Ile(3ξ)][NMeA][dL][Dab][Cha]V[Thr(3ξ)]CA-NH2; thioether N-14) | 0.03
CCC(C)[C@@H]1NC(=O)[C@H](Cc2ccc(-c3ccccc3)cc2)NC(=O)[C@H](C(C)C)NC(=O)[C@H](Cc2c[nH]c3ccccc23)NC(=O)[C@H](CC(=O)O)NC(=O)[C@H](Cc2ccc(O)cc2)NC(=O)[C@H](C2CCN(C(=N)N)CC2)NC(=O)CSC[C@@H](C(=O)N[C@@H](C)C(N)=O)NC(=O)[C@H](C(C)O)NC(=O)[C@H](C(C)C)NC(=O)[C@H](CC2CCCCC2)NC(=O)[C@H](CCN)NC(=O)[C@@H](CC(C)C)NC(=O)[C@H](C)N(C)C1=O (stereo partly drawn) [Compound 2054] ({CH2CO}-[Gly(1-amidinopiperidin-4-yl)]YDWV[Bip][Ile(3ξ)][NMeA][dL][Dab][Cha]V[Thr(3ξ)]CA-NH2; thioether N-14) | 0.02
CC(C)C[C@@H]1NC(=O)[C@H](CCCCN)NC(=O)[C@@H](CC(C)C)NC(=O)[C@H](C)N(C)C(=O)[C@H](CCC(=O)O)NC(=O)[C@H](Cc2ccc(-c3ccccc3)cc2)NC(=O)[C@H](C(C)C)NC(=O)[C@H](Cc2c[nH]c3ccccc23)NC(=O)[C@H](CC(=O)O)NC(=O)[C@H](Cc2ccc(O)cc2)NC(=O)[C@H](Cc2ccncc2)NC(=O)CSC[C@@H](C(=O)N[C@@H](C)C(N)=O)NC(=O)[C@H](C(C)O)NC(=O)[C@H](C(C)C)NC1=O (stereo partly drawn) [Compound 2057] ({CH2CO}-[4Pal]YDWV[Bip]E[NMeA][dL]KLV[Thr(3ξ)]CA-NH2; thioether N-14) | 0.04
CC(C)C[C@@H]1NC(=O)[C@H](CCC(=O)O)NC(=O)[C@@H](CC(C)C)NC(=O)[C@H](C)N(C)C(=O)[C@H](CCCCN)NC(=O)[C@H](Cc2ccc(-c3ccccc3)cc2)NC(=O)[C@H](C(C)C)NC(=O)[C@H](Cc2c[nH]c3ccccc23)NC(=O)[C@H](CC(=O)O)NC(=O)[C@H](Cc2ccc(O)cc2)NC(=O)[C@H](Cc2ccncc2)NC(=O)CSC[C@@H](C(=O)N[C@@H](C)C(N)=O)NC(=O)[C@H](C(C)O)NC(=O)[C@H](C(C)C)NC1=O (stereo partly drawn) [Compound 2058] ({CH2CO}-[4Pal]YDWV[Bip]K[NMeA][dL]ELV[Thr(3ξ)]CA-NH2; thioether N-14) | 0.04
CCC(C)[C@@H]1NC(=O)[C@H](Cc2ccc(-c3ccccc3)cc2)NC(=O)[C@H](C(C)C)NC(=O)[C@H](Cc2c[nH]c3ccccc23)NC(=O)[C@H](CC(=O)O)NC(=O)[C@H](Cc2ccc(O)cc2)NC(=O)[C@H](Cc2ccc(CN)cc2)NC(=O)CSC[C@@H](C(=O)N[C@@H](C)C(N)=O)NC(=O)[C@H](C(C)O)NC(=O)[C@H](C(C)C)NC(=O)[C@H](CC2CCCCC2)NC(=O)[C@H](CCN)NC(=O)[C@@H](CC(C)C)NC(=O)[C@H](C)N(C)C1=O (stereo partly drawn) [Compound 2062] ({CH2CO}-[Phe(4-CH2NH2)]YDWV[Bip][Ile(3ξ)][NMeA][dL][Dab][Cha]V[Thr(3ξ)]CA-NH2; thioether N-14) | 0.02
CCC(C)[C@@H]1NC(=O)[C@H](Cc2ccc(-c3ccccc3)cc2)NC(=O)[C@H](C(C)C)NC(=O)[C@H](Cc2cccc(C)c2)NC(=O)[C@H](CC(=O)O)NC(=O)[C@H](Cc2ccc(OCC(=O)O)cc2)NC(=O)[C@H](CCCCN(C)C)NC(=O)CSCC(C(=O)NCC(N)=O)NC(=O)[C@H](CO)NC(=O)[C@H](C(C)C)NC(=O)[C@H](CC(C)C)NC(=O)[C@H](CC(N)=O)NC(=O)[C@@H](CC(C)C)NC(=O)[C@H](C)N(C)C1=O (stereo partly drawn) [Compound 2063] ({CH2CO}-[Lys(Me2)]Y(Carboxymethyl)D[Phe(3-Me)]V[Bip][Ile(3ξ)][NMeA][dL]NLVS[ξC]G-NH2; thioether N-14) | 0.05
CCC(C)[C@@H]1NC(=O)[C@H](Cc2ccc(-c3ccccc3)cc2)NC(=O)[C@H](C(C)C)NC(=O)[C@H](Cc2cccc(C)c2)NC(=O)[C@H](CC(=O)O)NC(=O)[C@H](Cc2ccc(OCC(=O)O)cc2)NC(=O)[C@H](CCCC[N+](C)(C)C)NC(=O)CSCC(C(=O)NCC(N)=O)NC(=O)[C@H](CO)NC(=O)[C@H](C(C)C)NC(=O)[C@H](CC(C)C)NC(=O)[C@H](CC(N)=O)NC(=O)[C@@H](CC(C)C)NC(=O)[C@H](C)N(C)C1=O (stereo partly drawn) [Compound 2064] ({CH2CO}-[Lys(Me3)]Y(Carboxymethyl)D[Phe(3-Me)]V[Bip][Ile(3ξ)][NMeA][dL]NLVS[ξC]G-NH2; thioether N-14) | 0.04
CCC(C)[C@@H]1NC(=O)[C@H](Cc2ccc(-c3ccccc3)cc2)NC(=O)[C@H](CC(C)C)NC(=O)[C@H](Cc2c[nH]c3ccccc23)NC(=O)[C@H](CC(=O)O)NC(=O)[C@H](Cc2ccc(C(=O)O)cc2)NC(=O)[C@H](Cc2ccc(OCC(=O)O)cc2)NC(=O)CSC[C@@H](C(=O)N[C@@H](C)C(N)=O)NC(=O)[C@H](CO)NC(=O)[C@H](C(C)C)NC(=O)[C@H](CC2CCCCC2)NC(=O)[C@H](CNC)NC(=O)[C@@H](CC(C)C)NC(=O)[C@H](C)N(C)C1=O (stereo partly drawn) [Compound 2068] ({CH2CO}-Y(Carboxymethyl)[Phe(4-COOH)]DWL[Bip][Ile(3ξ)][NMeA][dL][Dap(Me)][Cha]VSCA-NH2; thioether N-14) | 0.03

The next lines start with the values.

IC50 [µM] | Compound
0.95 | CCC(C)[C@@H]1NC(=O)[C@H](Cc2ccc(-c3ccccc3)cc2)NC(=O)[C@H](C(C)C)NC(=O)[C@H](Cc2c[nH]c3ccccc23)NC(=O)[C@H](CC(N)=O)NC(=O)[C@H](Cc2ccc(OCC(=O)O)cc2)NC(=O)[C@H](Cc2ccncc2)NC(=O)CSC[C@@H](C(=O)N[C@@H](CCCCN)C(N)=O)NC(=O)[C@H](C(C)O)NC(=O)[C@H](C(C)C)NC(=O)[C@H](CC(C)C)NC(=O)[C@H](CC(N)=O)NC(=O)[C@@H](CC(C)C)NC(=O)[C@H](C)N(C)C1=O (stereo partly drawn) [Compound 2055] ({CH2CO}-[4Pal]Y(Carboxymethyl)NWV[Bip][Ile(3ξ)][NMeA][dL]NLV[Thr(3ξ)]CK-NH2; thioether N-14)
0.04 | CC(C)C[C@@H]1NC(=O)[C@H](CCN)NC(=O)[C@@H](CC(C)C)NC(=O)[C@H](C)N(C)C(=O)[C@H](CCC(=O)O)NC(=O)[C@H](Cc2ccc(-c3ccccc3)cc2)NC(=O)[C@H](C(C)C)NC(=O)[C@H](Cc2c[nH]c3ccccc23)NC(=O)[C@H](CC(N)=O)NC(=O)[C@H](Cc2ccc(O)cc2)NC(=O)[C@H](Cc2ccncc2)NC(=O)CSC[C@@H](C(=O)N[C@@H](C)C(N)=O)NC(=O)[C@H](C(C)O)NC(=O)[C@H](C(C)C)NC1=O (stereo partly drawn) [Compound 2056] ({CH2CO}-[4Pal]YNWV[Bip]E[NMeA][dL][Dab]LV[Thr(3ξ)]CA-NH2; thioether N-14)
0.74 | CCC(C)[C@@H]1NC(=O)[C@H](Cc2ccc(-c3ccccc3)cc2)NC(=O)[C@H](CCC(=O)O)NC(=O)[C@H](Cc2c[nH]c3ccccc23)NC(=O)[C@H](CC(N)=O)NC(=O)[C@H](Cc2ccc(O)cc2)NC(=O)[C@H](Cc2ccncc2)NC(=O)CSC[C@@H](C(=O)N[C@@H](C)C(N)=O)NC(=O)[C@H](C(C)O)NC(=O)[C@H](CCN)NC(=O)[C@H](CC(C)C)NC(=O)[C@H](CC(N)=O)NC(=O)[C@@H](CC(C)C)NC(=O)[C@H](C)N(C)C1=O (stereo partly drawn) [Compound 2059] ({CH2CO}-[4Pal]YNWE[Bip][Ile(3ξ)][NMeA][dL]NL[Dab][Thr(3ξ)]CA-NH2; thioether N-14)
0.28 | CCC(C)[C@@H]1NC(=O)[C@H](Cc2ccc(-c3ccccc3)cc2)NC(=O)[C@H](C(C)C)NC(=O)[C@H](Cc2c[nH]c3ccccc23)NC(=O)[C@H](CC(=O)O)NC(=O)[C@H](Cc2ccc(O)cc2)NC(=O)[C@H](Cc2ccncc2)NC(=O)CSC[C@@H](C(=O)N[C@@H](C)C(N)=O)NC(=O)[C@H](C(C)O)NC(=O)[C@H](CCN)NC(=O)[C@H](CC(C)C)NC(=O)[C@H](CC(N)=O)NC(=O)[C@@H](CC(C)C)NC(=O)[C@H](C)N(C)C1=O (stereo partly drawn) [Compound 2060] ({CH2CO}-[4Pal]YDWV[Bip][Ile(3ξ)][NMeA][dL]NL[Dab][Thr(3ξ)]CA-NH2; thioether N-14)
0.01 | CCC(C)[C@@H]1NC(=O)[C@H](Cc2ccc(-c3ccccc3)cc2)NC(=O)[C@H](C(C)C)NC(=O)[C@H](Cc2c[nH]c3ccccc23)NC(=O)[C@H](CC(=O)O)NC(=O)[C@H](Cc2ccc(O)cc2)NC(=O)[C@H](CC(N)=O)NC(=O)CSC[C@@H](C(=O)N[C@@H](C)C(N)=O)NC(=O)[C@H](C(C)O)NC(=O)[C@H](C(C)C)NC(=O)[C@H](CC2CCCCC2)NC(=O)[C@H](CCN)NC(=O)[C@@H](CC(C)C)NC(=O)[C@H](C)N(C)C1=O (stereo partly drawn) [Compound 2061] ({CH2CO}-NYDWV[Bip][Ile(3ξ)][NMeA][dL][Dab][Cha]V[Thr(3ξ)]CA-NH2; thioether N-14)
0.35 | CCC(C)[C@@H]1NC(=O)[C@H](Cc2ccc(-c3ccccc3)cc2)NC(=O)[C@H](C(C)C)NC(=O)[C@H](Cc2c[nH]c3ccccc23)NC(=O)[C@H](CC(N)=O)NC(=O)[C@H](Cc2ccc(O)cc2)NC(=O)[C@H](CC(N)=O)NC(=O)CSCC(C(=O)NCC(N)=O)NC(=O)[C@H](C(C)O)NC(=O)[C@H](C(C)C)NC(=O)[C@H](CC2CCCCC2)NC(=O)[C@H](CC(N)=O)NC(=O)[C@@H](CC(C)C)NC(=O)[C@H](C)N(C)C1=O (stereo partly drawn) [Compound 2066] ({CH2CO}-NYNWV[Bip][Ile(3ξ)][NMeA][dL]N[Cha]V[Thr(3ξ)][ξC]G-NH2; thioether N-14)
0.1 | CCC(C)[C@@H]1NC(=O)[C@H](Cc2ccc(-c3ccccc3)cc2)NC(=O)[C@H](C(C)C)NC(=O)[C@H](Cc2c[nH]c3ccccc23)NC(=O)[C@H](CC(=O)O)NC(=O)[C@H](Cc2ccc(O)cc2)NC(=O)[C@H](CC(N)=O)NC(=O)CSC[C@@H](C(=O)N[C@@H](CC(N)=O)C(N)=O)NC(=O)[C@H](C(C)O)NC(=O)[C@H](C(C)C)NC(=O)[C@H](CC(C)C)NC(=O)[C@H](CCN)NC(=O)[C@@H](CC(C)C)NC(=O)[C@H](C)N(C)C1=O (stereo partly drawn) [Compound 2069] ({CH2CO}-NYDWV[Bip][Ile(3ξ)][NMeA][dL][Dab]LV[Thr(3ξ)]CN-NH2; thioether N-14)
